test system: rat small-intestinal brush border membrane vesicles; assay: Inhibitory effect on 33PO4 uptake into rat small-intestinal brush border membrane vesicles (rapid filtration method); assay type: biochemical, Wistar female rat; conditions: 1 µM test compound; 33PO4 uptake into rat small-intestinal BBMVs, 60 seconds
Method in brief: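 Uptake was terminated by ice-cold 110 mM NaCl, 1 mM KH2PO4, 10 mM HEPES (pH 7.5) buffer and immediate suction filtration, then washing. Using rat small-intestinal BBMVs, retained 33PO4 was quantified by liquid scintillation counting as transport activity.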

Molecule | Rate of uptake inhibition (%) (1 µM)
CN(CCOCCOCCOCCOCCOc1ccc(CN2C(=O)C(C(=O)Nc3ccc(C(F)(F)F)cc3-c3cc(C(F)(F)F)ncn3)=C(O)C3(CCCC3)N2C)c(F)c1F)C[C@@H](O)[C@H](O)[C@@H](O)[C@@H](O)CO [Example 421, 7-[[2,3-Difluoro-4-[2-[2-[2-[2-[2-[methyl-[(2R,3S,4S,5S)-2,3,4,5,6-pentahydroxyhexyl]amino]ethoxy]ethoxy]ethoxy]ethoxy]ethoxy]phenyl]methyl]-10-hydroxy-6-methyl-8-oxo-N-[4-(trifluoromethyl)-2-[6-(trifluoromethyl)pyrimidin-4-yl]phenyl]-6,7-diazaspiro[4.5]dec-9-ene-9-carboxamide] | 24
CN(C[C@H](O)[C@@H](O)[C@H](O)[C@H](O)CO)C(=O)CCOCCOCCOc1ccc(CN2C(=O)C(C(=O)Nc3ccc(C(F)(F)F)cc3-c3cc(C(F)(F)F)ncn3)=C(O)C3(CCCC3)N2C)c(F)c1F [Example 422] | 29
CN(C[C@H](O)[C@@H](O)[C@H](O)[C@H](O)CO)C(=O)CCOCCOCCOCCOc1ccc(CN2C(=O)C(C(=O)Nc3ccc(C(F)(F)F)cc3-c3cc(C(F)(F)F)ncn3)=C(O)C3(CCCC3)N2C)c(F)c1F [Example 423] | 5
CN1N(Cc2ccc(OCCOCCOCCOCCC(=O)NCC(O)CO)c(F)c2F)C(=O)C(C(=O)Nc2ccc(C(F)(F)F)cc2-c2cc(C(F)(F)F)ncn2)=C(O)C12CCCC2 (stereo not drawn) [Example 424] | 17
CN(CCOCCC(=O)N(C)C[C@H](O)[C@@H](O)[C@H](O)[C@H](O)CO)CCOc1ccc(CN2C(=O)C(C(=O)Nc3ccc(C(F)(F)F)cc3-c3cc(C(F)(F)F)ncn3)=C(O)C3(CCCC3)N2C)c(F)c1F [Example 425] | 5
CN(CCOCCC(=O)NCC(O)CO)CCOc1ccc(CN2C(=O)C(C(=O)Nc3ccc(C(F)(F)F)cc3-c3cc(C(F)(F)F)ncn3)=C(O)C3(CCCC3)N2C)c(F)c1F (stereo not drawn) [Example 426] | 24
CN1N(Cc2ccc(OCCOCCNC(=O)[C@@H](O)[C@H](O)[C@@H](O)[C@@H](O)CO)c(F)c2F)C(=O)C(C(=O)Nc2ccc(C(F)(F)F)cc2-c2cc(C(F)(F)F)ncn2)=C(O)C12CCCC2 [Example 427, 7-[[2,3-Difluoro-4-[2-[2-[[(2S,3R,4S,5S)-2,3,4,5,6-pentahydroxyhexanoyl]amino]ethoxy]ethoxy]phenyl]methyl]-10-hydroxy-6-methyl-8-oxoN-[4-(trifluoromethyl)-2-[6-(trifluoromethyl)pyrimidin-4-yl]phenyl]-6,7-diazaspiro[4.5]dec-9-ene-9-carboxamide] | 12
CN1N(Cc2ccc(OCCOCCOCCOCCNC(=O)[C@@H](O)[C@H](O)[C@@H](O)[C@@H](O)CO)c(F)c2F)C(=O)C(C(=O)Nc2ccc(C(F)(F)F)cc2-c2cc(C(F)(F)F)ncn2)=C(O)C12CCCC2 [Example 428, 7-[[2,3-Difluoro-4-[2-[2-[2-[2-[[(2S,3R,4S,5S)-2,3,4,5,6-pentahydroxyhexanoyl]amino]ethoxy]ethoxy]ethoxy]ethoxy]phenyl]methyl]-10-hydroxy-6-methyl-8-oxo-N-[4-(trifluoromethyl)-2-[6-(trifluoromethyl)pyrimidin-4-yl]phenyl]-6,7-diazaspiro[4.5]dec-9-ene-9-carboxamide] | 14
COCCN(C)CCOCCOc1ccc(CN2C(=O)C(C(=O)Nc3ccc(C(F)(F)F)cc3-c3cc(C(F)(F)F)ncn3)=C(O)C3(CCCC3)N2C)c(F)c1F [Example 429, 7-[[2,3-Difluoro-4-[2-[2-[2-methoxyethyl(methyl)amino]ethoxy]ethoxy]phenyl]methyl]-10-hydroxy-6-methyl-8-oxo-N-[4-(trifluoromethyl)-2-[6-(trifluoromethyl)pyrimidin-4-yl]phenyl]-6,7-diazaspiro[4.5]dec-9-ene-9-carboxamide] | 41
COCCN(C)CCOCCOCCOc1ccc(CN2C(=O)C(C(=O)Nc3ccc(C(F)(F)F)cc3-c3cc(C(F)(F)F)ncn3)=C(O)C3(CCCC3)N2C)c(F)c1F [Example 430] | 29
COCCN(C)CCOCCOCCOCCOc1ccc(CN2C(=O)C(C(=O)Nc3ccc(C(F)(F)F)cc3-c3cc(C(F)(F)F)ncn3)=C(O)C3(CCCC3)N2C)c(F)c1F [Example 431] | 26
COCCN(C)CCOCCOCCOCCOCCOc1ccc(CN2C(=O)C(C(=O)Nc3ccc(C(F)(F)F)cc3-c3cc(C(F)(F)F)ncn3)=C(O)C3(CCCC3)N2C)c(F)c1F [Example 432] | 11
COCCN(C)CCOc1c(I)cc(CN2C(=O)C(C(=O)Nc3ccc(C(F)(F)F)cc3-c3cc(C(F)(F)F)ncn3)=C(O)C3(CCCC3)N2C)c(F)c1F [Example 437, 7-[[2,3-Difluoro-5-iodo-4-[2-[2-methoxyethyl(methyl)amino]ethoxy]phenyl]methyl]-10-hydroxy-6-methyl-8-oxo-N-[4-(trifluoromethyl)-2-(6-(trifluoromethyl)pyrimidin-4-yl]phenyl]-6,7-diazaspiro[4.5]dec-9-ene-9-carboxamide] | 45
COCCOc1cc(NC(=O)C2=C(O)C3(CCCC3)N(C)N(Cc3ccc(OCCN(C)CCOC)c(F)c3F)C2=O)c(-c2ncnc(C(F)(F)F)c2C)cc1C(F)(F)F [Example 439, 7-[[2,3-Difluoro-4-[2-[2-methoxyethyl(methyl)amino]ethoxy]phenyl]methyl]-10-hydroxy-N-[5-(2-methoxyethoxy)-2-[5-methyl-6-(trifluoromethyl)pyrimidin-4-yl]-4-(trifluoromethyl)phenyl]-6-methyl-8-oxo-6,7-diazaspiro[4.5]dec-9-ene-9-carboxamide] | 35
COCCN(C)CCOc1c(-c2cccnc2)cc(CN2C(=O)C(C(=O)Nc3ccc(C(F)(F)F)cc3-c3cc(C(F)(F)F)ncn3)=C(O)C3(CCCC3)N2C)c(F)c1F [Example 440, 9-[[2,3-Difluoro-4-[2-[2-methoxyethyl(methyl)amino]ethoxy]-5-(3-pyridinyl)phenyl]methyl]-6-hydroxy-10-methyl-8-oxo-N-[4-(trifluoromethyl)-2-[6-(trifluoromethyl)pyrimidin-4-yl]phenyl]-9,10-diazaspiro[4.5]dec-6-ene-7-carboxamide] | 28
CN(C[C@H](O)[C@@H](O)[C@H](O)[C@H](O)CO)C(=O)COCCOCCOCCOCCOc1ccc(CN2C(=O)C(C(=O)Nc3ccc(C(F)(F)F)cc3-c3cc(C(F)(F)F)ncn3)=C(O)C3(CCCC3)N2C)c(F)c1F [Example 441, 7-[[2,3-Difluoro-4-[2-[2-[2-[2-[2-[methyl-[(2S,3R,4R,5R)-2,3,4,5,6-pentahydroxyhexyl]amino]-2-oxoethoxy]ethoxy]ethoxy]ethoxy]ethoxy]phenyl]methyl]-10-hydroxy-6-methyl-8-oxo-N-[4-(trifluoromethyl)-2-[6-(trifluoromethyl)pyrimidin-4-yl]phenyl]-6,7-diazaspiro[4.5]dec-9-ene-9-carboxamide] | 22
COCCN(C)CCN(C)c1ccc(CN2C(=O)C(C(=O)Nc3ccc(C(F)(F)F)cc3-c3cc(C(F)(F)F)ncn3)=C(O)C3(CCCC3)N2C)c(F)c1F [Example 442] | 24
CCN(CCN(C)CCOC)c1ccc(CN2C(=O)C(C(=O)Nc3ccc(C(F)(F)F)cc3-c3cc(C(F)(F)F)ncn3)=C(O)C3(CCCC3)N2C)c(F)c1F [Example 443] | 28
CCCN(CCN(C)CCOC)c1ccc(CN2C(=O)C(C(=O)Nc3ccc(C(F)(F)F)cc3-c3cc(C(F)(F)F)ncn3)=C(O)C3(CCCC3)N2C)c(F)c1F [Example 444] | 24
COCCN(C)CCN(c1ccc(CN2C(=O)C(C(=O)Nc3ccc(C(F)(F)F)cc3-c3cc(C(F)(F)F)ncn3)=C(O)C3(CCCC3)N2C)c(F)c1F)C(C)C [Example 445] | 29
CN1N(Cc2ccc(NCCCN3CCOCC3)c(F)c2F)C(=O)C(C(=O)Nc2ccc(C(F)(F)F)cc2-c2cc(C(F)(F)F)ncn2)=C(O)C12CCCC2 [Example 446] | 31
CN1N(Cc2ccc(NCCN3CCOCC3)c(F)c2F)C(=O)C(C(=O)Nc2ccc(C(F)(F)F)cc2-c2cc(C(F)(F)F)ncn2)=C(O)C12CCCC2 [Example 447] | 50
(4aR)-1-[(2,3-Difluorophenyl)methyl]-4-hydroxy-N-[5-methyl-2-(trifluoromethyl)furan-3-yl]-2-oxo-4a-propyl-6,7-dihydro-5H-pyrrolo[1,2-b]pyridazine-3-carboxamide [Example 12] | 27
(4aR)-1-[(2,3-Difluorophenyl)methyl]-4a-ethyl-4-hydroxy-N-[5-methyl-2-(trifluoromethyl)furan-3-yl]-2-oxo-6,7-dihydro-5H-pyrrolo[1,2-b]pyridazine-3-carboxamide [Example 10] | 37
(4aR)-1-[(3-Fluorophenyl)methyl]4-hydroxy-N-[5-methyl-2-(trifluoromethyl)furan-3-yl]-2-oxo-4a-propyl-6,7-dihydro-5H-pyrrolo[1,2-b]pyridazine-3-carboxamide [Example 11] | 22
(4aR)-1-[(3-Fluorophenyl)methyl]-4-hydroxy-4a-methyl-N-[5-methyl-2-(trifluoromethyl)furan-3-yl]-2-oxo-6,7-dihydro-5H-pyrrolo[1,2-b]pyridazine-3-carboxamide [Example 6] | 48

same assay, conditions: 1 µM test compound; 33PO4 uptake into rat small-intestinal BBMVs, 60 seconds; 1 µM

Molecule | Rate of uptake inhibition (%) (1 µM)
CN1N(Cc2ccc(OCCNCCS(=O)(=O)O)c(F)c2F)C(=O)C(C(=O)Nc2ccc(C(F)(F)F)cc2-c2cc(C(F)(F)F)ncn2)=C(O)C12CCCC2 [Example 435, 2-[2-[2,3-Difluoro-4-[[10-hydroxy-6-methyl-8-oxo-9-[[4-(trifluoromethyl)-2-[6-(trifluoromethyl)pyrimidin-4-yl]phenyl]carbamoyl]-6,7-diazaspiro[4.5]dec-9-en-7-yl]methyl]phenoxylethy]amino]ethanesulfonic acid] | 11

From EP2975030B1, “DIHYDROPYRIDAZINE-3,5-DIONE DERIVATIVE” (Chugai Seiyaku Kabushiki Kaisha, priority 2013, dated 2014)
